Source: US10202408B2, “Prodrugs and methods of use thereof” (Health Innovation Ventures B.V., priority 2012, dated 2019)
Converted amounts (≈) assume the structure as drawn. “Also recorded” adds a separate entry of the source.

Assays:
[1] = Solubility determined by HPLC; type: physicochemical; settings: plasma or biological fluid; α-Minimal Essential Media (α-MEM) containing 5% Fetal Calf Serum (FCS)
Protocol: Table Footnote: ^aDetermined in α-Minimal Essential Media (α-MEM) containing 5% Fetal Calf Serum (FCS). ^bDetermined in Phosphate Buffered Saline (PBS) containing 2 equivalents of sodium bicarbonate. ^cDetermined in Lactate Buffer at pH=4.
Solubility and stability of compounds in media (+5% Fetal calf serum), phosphate buffered saline (+sodium bicarbonate) or lactate buffer (at pH=4) were determined by HPLC.

[2] = system: HCT116 POR cell line (over-expressing Cytochrome P450 reductase); experiment: Oxic versus anoxic low cell density IC50 assay, HCT116 POR cells; type: cell-based, human; settings: HCT116 POR cell line compared with wild type
Protocol: Compounds were subjected to testing, including low-cell density cytotoxicity assay. Cells (500 cells/well) were seeded in 96-well plates and exposed to prodrug for 4 h, washed, then left to grow for a further 5 days. The SRB assay was employed to determine IC50 values (concentration of prodrug required to inhibit proliferation by 50%). Parental HCT116 cells (HCT116 is a cell line derived from human colon cancer) and cells expressing the example nitroreductase gene nfsA from Escherichia coli were evaluated head-to-head. Parental H1299 cells (H1299 is a cell line derived from lung cancer) and cells expressing the example nitroreductase gene nfsA from Escherichia coli were evaluated head-to-head. Parental HCT116 cells and cells expressing human AKR1C3 were evaluated head-to-head. Parental H1299 cells and cells expressing human AKR1C3 were evaluated head-to-head. In a variation of these assays test compounds were assessed for their ability to give hypoxia-selective cell killing. Here wild type HCT116, H460 (H460 is a cell line derived from lung cancer), H1299 and SiHa cells (SiHa is a cell line derived from cervical cancer) were used in addition to HCT116 cells engineered to over express cytochrome P450 reductase (HCT116 POR), a human one-electron nitroreductase. […]

[3] = system: bacterial nitroreductases from the NfsA and NfsB families; experiment: GFP SOS assay with nitroreductase over-expression library; type: cell-based, E. coli strain SOS-R4; settings: single and poly mutated variants of NfsA_Ec, single-mutated variant of NfsA_Bs
[4] = system: HCT116, H460, H1299 and SiHa wild type cancer cell lines; experiment: Oxic versus anoxic low cell density IC50 assay, wild type cancer cell lines; type: cell-based, human; settings: 4 h anoxia during prodrug exposure versus oxic
Protocol: (§1) Compounds were subjected to testing, including low-cell density cytotoxicity assay. Cells (500 cells/well) were seeded in 96-well plates and exposed to prodrug for 4 h, washed, then left to grow for a further 5 days. The SRB assay was employed to determine IC50 values (concentration of prodrug required to inhibit proliferation by 50%). Parental HCT116 cells (HCT116 is a cell line derived from human colon cancer) and cells expressing the example nitroreductase gene nfsA from Escherichia coli were evaluated head-to-head. Parental H1299 cells (H1299 is a cell line derived from lung cancer) and cells expressing the example nitroreductase gene nfsA from Escherichia coli were evaluated head-to-head. Parental HCT116 cells and cells expressing human AKR1C3 were evaluated head-to-head. Parental H1299 cells and cells expressing human AKR1C3 were evaluated head-to-head. In a variation of these assays test compounds were assessed for their ability to give hypoxia-selective cell killing. Here wild type HCT116, H460 (H460 is a cell line derived from lung cancer), H1299 and SiHa cells (SiHa is a cell line derived from cervical cancer) were used in addition to HCT116 cells engineered to over express cytochrome P450 reductase (HCT116 POR), a human one-electron nitroreductase. Low-cell density cytotoxicity assays were performed as above under oxic conditions and compared to experiments where cells were shown 4 h of anoxia during the prodrug exposure period, before being washed free of prodrug and then left to grow for a further 5 days under oxic conditions, as above.

[5] = system: HCT116 MCLs over-expressing AKR1C3; experiment: Multicellular layer (MCL) clonogenic assay, HCT116 wild type versus AKR1C3 over-expressing MCLs; type: cell-based, human
[6] = system: 15% E coli NfsA-expressing HCT116 xenografts; experiment: Tumour growth delay, 15% E coli NfsA-expressing HCT116 xenografts; type: in vivo, NIH-III mice; settings: single dose; 10, 22 and 60 at 1000, 422 and 1330 umol/kg
Protocol: Animals weighed 18-25 g at the time of tumour inoculation. Tumours were grown subcutaneously on the right flank of mice by inoculating cells grown in tissue culture (1×10^7 cells in 100 uL serum free α-MEM). Tumour sizes were monitored three times weekly using electronic callipers and treatments were initiated once tumour diameter reached ≥7 mm.
Tumour bearing mice were randomised into the appropriate treatment groups and tumour size and body weight recorded. Test compounds were formulated on the day of the experiment and kept in foil-wrapped tubes out of direct fluorescent light. If recruitment of animals occurred over multiple days, the drug stocks were aliquoted into tubes and frozen once at […] until required. Mice were treated with a single (or BID) dose of prodrug by intraperitoneal injection and thereafter tumour size and body weight was monitored every second day. Tumour volume was calculated as π (l×w×w)/6, where l is the major axis and w is the perpendicular minor axis. Animals were culled when they had reached the appropriate survival endpoint or when body weight loss exceeded 20% of the pre-treatment value.

[7] = system: bacterial nitroreductases from the NfsA and NfsB families; experiment: GFP SOS assay with nitroreductase over-expression library; type: cell-based, E. coli strain SOS-R4; settings: 55 candidate nitroreductase library, 6 h challenge
[8] = system: wild type SiHa tumour xenografts; experiment: Excision assay with and without radiation, wild type SiHa tumour xenografts; type: in vivo, NIH-III nude mice; settings: for cell killing in combination with radiation versus radiation alone: HCT116 POR and wild type SiHa xenografts, 10 or 15Gy, single (or BID) intraperitoneal dose; for hypoxic cell kill in vivo (log cell kill): with or without 10Gy radiation, 22 at 422, 300 and 11 at 1330, 23 at 1000 umol/kg
Protocol: (§2) Tumours were grown subcutaneously in the flank of NIH-III mice by inoculating cells grown in tissue culture. Tumours were monitored using electronic calipers. When tumours reached treatment size, mice were randomized to treatment groups (five to seven per group). Compounds were given as single (or BID) intraperitoneal doses alone or 5 min after whole body irradiation (^60Co source). Eighteen hours after treatment, tumours were excised, weighed, minced, dissociated enzymatically, and plated to determine clonogenicity. Clonogens/gram of tissue were calculated relative to controls and effects of treatment were tested for significance (ANOVA with Dunnett's).

[9] = system: HCT116 MCLs with 3% E coli NfsA-expressing cells; experiment: MCL clonogenic bystander assay, HCT116 MCLs seeded with 3% E coli NfsA-expressing cells; type: cell-based, human; settings: 97% wild type HCT116, 3% E coli NfsA-expressing cells
[10] = system: H1299 cells engineered to over-express E coli NfsA; experiment: Low cell density IC50 (SRB) assay, H1299 wild type versus E coli NfsA over-expressing cells; type: cell-based, human
[11] = system: 15% E coli NfsA-expressing H1299 xenografts; experiment: Tumour growth delay, 15% E coli NfsA-expressing H1299 xenografts; type: in vivo, NIH-III mice
[12] = system: H1299 cells engineered to over-express human aldo-ketoreductase 1C3 (AKR1C3); experiment: Low cell density IC50 (SRB) assay, H1299 wild type versus AKR1C3 over-expressing cells; type: cell-based; settings: 4 h exposure
Protocol: as §1

[13] = system: HCT116 cells engineered to over-express E coli NfsA; experiment: Low cell density IC50 (SRB) assay, HCT116 wild type versus E coli NfsA over-expressing cells; type: cell-based, human
[14] = system: HCT116 cells engineered to over-express human aldo-ketoreductase 1C3 (AKR1C3); experiment: Low cell density IC50 (SRB) assay, HCT116 wild type versus AKR1C3 over-expressing cells; type: cell-based; settings: 4 h exposure
[15] = system: HCT116 tumour xenografts over-expressing Cytochrome P450 reductase; experiment: Excision assay with and without radiation, HCT116 POR tumour xenografts; type: in vivo, mice; settings: 1330 μmol/kg, with or without 15Gy radiation
Protocol: as §2

| SMILES | solubility [1] | Hypoxic Cytotoxicity Ratios (HCR) [2] | activity with mutated nitroreductase variants [3] | hypoxia-dependent cytotoxicity [4] | AKR1C3-dependent clonogenic cell kill in MCLs [5] | E coli NfsA mediated anti-tumour efficacy (mean tumour volume) [6] | metabolism by bacterial nitroreductases (SOS response) [7] | cell killing in combination with radiation versus radiation alone [8] | hypoxic cell kill in vivo (log cell kill) [8] | bystander cell killing in MCLs [9] | E coli NfsA-mediated cytotoxicity (IC50 wild type versus NfsA) [10] | E coli NfsA mediated anti-tumour efficacy (mean tumour volume) ([11]; 500 umol/kg twice daily (BID), total 1000 umol/kg) | tumour growth delay ([11]; mixed HCT116 and H1299 xenografts, 15% E coli NfsA cells, single (or BID) intraperitoneal dose) | E coli NfsA mediated anti-tumour efficacy (mean tumour volume) ([11]; single dose, 10, 22, 60 and 11 at 750, 422, 1330 and 1330 umol/kg) | AKR1C3-mediated cytotoxicity (IC50 wild type versus AKR1C3) [12] | E coli NfsA-mediated cytotoxicity (IC50 wild type versus NfsA) [13] | AKR1C3-mediated cytotoxicity (IC50 wild type versus AKR1C3) [14] | hypoxic cell kill in vivo (log cell kill) [15] |
| --- | --- | --- | --- | --- | --- | --- | --- | --- | --- | --- | --- | --- | --- | --- | --- | --- | --- | --- |
| CS(=O)(=O)c1cc([N+](=O)[O-])c(C(N)=O)cc1N(CCBr)CCBr [compound 4] | 68 µM (≈ 32.2 µg/mL) |  |  |  |  |  |  |  |  |  |  |  |  |  |  |  |  |  |
| CN1CCN(C(=O)c2cc(N(CCBr)CCBr)c(S(C)(=O)=O)cc2[N+](=O)[O-])CC1 [compound 22, (5-(bis(2-bromoethyl)amino)-4-(methylsulfonyl)-2-nitrophenyl)(4-methylpiperazin-1-yl)methanone] |  | Larger HCRs; also recorded: The degree of this effect was increased | demonstrated | increased cytotoxicity in cells under hypoxia | do not cause AKR1C3-dependant cytotoxicity | display significant E coli NfsA mediated anti-tumour efficacy | substrates for multiple wild type and mutant bacterial nitroreductases from the NfsA and NfsB families | increased cell killing above what could be achieved with radiation alone | significant hypoxic cell kill in vivo | display evidence of metabolism by the 3% E coli NfsA-expressing cells with bystander cell killing of the 97% non-expressing neighbour cells | produce E coli NfsA-mediated cytotoxicity | display significant E coli NfsA mediated anti-tumour efficacy | profound tumour growth delay | display significant E coli NfsA mediated anti-tumour efficacy | less susceptible to AKR1C3-mediated cytotoxicity than PR-104A | produce E coli NfsA-mediated cytotoxicity | less susceptible to AKR1C3-mediated cytotoxicity than PR-104A |  |
| CS(=O)(=O)c1cc([N+](=O)[O-])c(C(=O)NCCOP(=O)(O)O)cc1N(CCBr)CCBr [compound 300, 2-(5-(bis(2-bromoethyl)amino)-4-(methylsulfonyl)-2-nitrobenzamido)ethyl dihydrogen phosphate] |  |  |  |  |  |  |  | increased cell killing above what could be achieved with radiation alone | significant hypoxic cell kill in vivo |  |  |  |  |  |  |  |  | significant hypoxic cell kill in vivo |
